In ChEMBL document CHEMBL5346977, “Discovery of Novel d-(+)-Biotin-Conjugated Resorcinol Dibenzyl Ether-Based PD-L1 Inhibitors for Targeted Cancer Immunotherapy” (J Med Chem, 2023):
Calls of active or inactive are those of the source. The rule behind the calls is not given here.

Assays:
[1] = target: T1, Programmed cell death protein 1/Programmed cell death 1 ligand 1 (Homo sapiens) (UniProt Q15116+Q9NZQ7); assay: Inhibition of GST-tagged PD-1 (unknown origin)/His-tagged PD-L1 (unknown origin) interaction at 10 nM by HTRF binding assay relative to control; assay type: protein-complex assay
[2] = target: T1, Programmed cell death protein 1/Programmed cell death 1 ligand 1 (Homo sapiens); assay: Inhibition of GST-tagged PD-1 (unknown origin)/His-tagged PD-L1 (unknown origin) interaction at 100 nM by HTRF binding assay relative to control; assay type: protein-complex assay
[3] = target: T2, Programmed cell death protein 1/Programmed cell death 1 ligand 1 (Homo sapiens, UniProt Q9NZQ7); assay: Inhibition of GST-tagged PD-1 (unknown origin)/His-tagged PD-L1 (unknown origin) interaction by HTRF binding assay relative to control; assay type: protein-complex assay
T2 sequence (Q15116 whole entry): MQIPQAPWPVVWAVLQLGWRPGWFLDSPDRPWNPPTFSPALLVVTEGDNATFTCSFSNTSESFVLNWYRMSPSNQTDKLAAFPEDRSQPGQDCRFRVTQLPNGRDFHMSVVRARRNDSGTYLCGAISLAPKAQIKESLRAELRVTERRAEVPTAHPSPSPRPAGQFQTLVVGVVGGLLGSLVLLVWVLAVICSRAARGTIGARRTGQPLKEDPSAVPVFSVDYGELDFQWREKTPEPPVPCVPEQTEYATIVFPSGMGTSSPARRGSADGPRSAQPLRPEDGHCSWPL
T2 sequence (Q9NZQ7 whole entry): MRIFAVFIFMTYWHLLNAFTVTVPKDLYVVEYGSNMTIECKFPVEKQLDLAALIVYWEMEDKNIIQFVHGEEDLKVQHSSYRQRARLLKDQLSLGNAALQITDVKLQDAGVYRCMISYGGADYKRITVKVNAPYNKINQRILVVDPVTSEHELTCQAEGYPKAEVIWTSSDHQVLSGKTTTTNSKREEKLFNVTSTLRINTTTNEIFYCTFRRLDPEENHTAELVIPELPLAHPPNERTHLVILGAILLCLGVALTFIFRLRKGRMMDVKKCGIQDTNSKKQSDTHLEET

HepG2 = assay: Antitumor immunity activity against human HepG2 cells expressing human PD-L1 co-cultured with human Jurkat T cells expressing human PD-1 assessed as reduction in cell viability at 10 uM incubated for 48 hrs by CCK8 assay relative to control; assay type: functional
[4] = target: T2, Programmed cell death protein 1/Programmed cell death 1 ligand 1; assay: Inhibition of interaction of PD-1 (unknown origin) expressed in Jurkat T cells carrying luciferase reporter under the control of NFAT promoter/PD-L1 (unknown origin) expressed in CHO cells co-expressing TCR ligand and T-cell surrogate pretreated with CHO cells for 0.5 hrs followed by Jurkat T cell addition and measured after 5 hrs by luminescence based analysis
[5] = AUC (0 to t) in Sprague-Dawley rat at 1 mg/kg, iv administered as single dose and measured after 48 hrs by HPLC-MS/MS analysis; assay type: ADME, organism-based; set-up: dose 1 mg/kg, time 48 hrs, route iv; conditions: in vivo
[6] = AUC (0 to infinity) in Sprague-Dawley rat at 1 mg/kg, iv administered as single dose and measured after 48 hrs by HPLC-MS/MS analysis; assay type: ADME, organism-based; set-up: dose 1 mg/kg, time 48 hrs, route iv; conditions: in vivo
[7] = MRT (0 to t) in Sprague-Dawley rat at 1 mg/kg, iv administered as single dose and measured after 48 hrs by HPLC-MS/MS analysis; assay type: ADME, organism-based; conditions: in vivo
[8] = MRT (0 to infinity) in Sprague-Dawley rat at 1 mg/kg, iv administered as single dose and measured after 48 hrs by HPLC-MS/MS analysis; assay type: ADME, organism-based; conditions: in vivo
[9] = Half-life in Sprague-Dawley rat at 1 mg/kg, iv administered as single dose and measured after 48 hrs by HPLC-MS/MS analysis; assay type: ADME, organism-based; conditions: in vivo
[10] = Tmax in Sprague-Dawley rat at 1 mg/kg, iv administered as single dose and measured after 48 hrs by HPLC-MS/MS analysis; assay type: ADME, organism-based; conditions: in vivo
[11] = Clearance in Sprague-Dawley rat at 1 mg/kg, iv administered as single dose and measured after 48 hrs by HPLC-MS/MS analysis; assay type: ADME, organism-based; conditions: in vivo
[12] = Apparent volume of distribution in Sprague-Dawley rat at 1 mg/kg, iv administered as single dose and measured after 48 hrs by HPLC-MS/MS analysis; assay type: ADME, organism-based; conditions: in vivo, read-out: Vz
[13] = Initial drug concentration in Sprague-Dawley rat at 1 mg/kg, iv administered as single dose and measured after 48 hrs by HPLC-MS/MS analysis; assay type: ADME, organism-based; conditions: in vivo
B16-F10 [14] = assay: Antitumor activity against mouse B16-F10 cells implanted in BALB/c mouse assessed as reduction in tumor growth inhibition at 50 mg/kg, ip administered once daily for 14 days relative to control; assay type: functional; conditions: B16-F10, 336 h, time 14 day, read-out: TGI
B16-F10 [15] = assay: Antitumor immunity against mouse B16-F10 cells implanted in allogenic BALB/c mouse assessed as increase in CD3+ T cells at 50 mg/kg, ip by flow cytometric analysis (reference value: 2.51%); assay type: functional
[16] = Toxicity in allogenic BALB/c mouse implanted with mouse B16-F10 cells assessed as severe crypt necrosis in colon at 50 mg/kg, ip by H&E staining based analysis; assay type: organism-based; conditions: in vivo
[17] = Toxicity in allogenic BALB/c mouse implanted with mouse B16-F10 cells assessed as inflammatory cell infiltration in colon at 50 mg/kg, ip by H&E staining based analysis; assay type: organism-based; conditions: in vivo
[18] = target: T1, Programmed cell death protein 1/Programmed cell death 1 ligand 1 (Homo sapiens); assay: Inhibition of GST-tagged PD-1 (unknown origin)/His-tagged PD-L1 (unknown origin) interaction at 10 uM by HTRF binding assay; assay type: protein-complex assay
[19] = target: Programmed cell death 1 ligand 1 (Homo sapiens, UniProt Q9NZQ7); assay: Binding affinity to human PD-L1 at 20 uM by SPR analysis
Chain of Programmed cell death 1 ligand 1 (Q9NZQ7 whole entry): as above

[20] = target: Programmed cell death 1 ligand 1 (Mus musculus) (UniProt Q9EP73); assay: Binding affinity to mouse PD-L1 at 20 uM by SPR analysis
Chain of Programmed cell death 1 ligand 1 (Mus musculus) (Q9EP73 whole entry): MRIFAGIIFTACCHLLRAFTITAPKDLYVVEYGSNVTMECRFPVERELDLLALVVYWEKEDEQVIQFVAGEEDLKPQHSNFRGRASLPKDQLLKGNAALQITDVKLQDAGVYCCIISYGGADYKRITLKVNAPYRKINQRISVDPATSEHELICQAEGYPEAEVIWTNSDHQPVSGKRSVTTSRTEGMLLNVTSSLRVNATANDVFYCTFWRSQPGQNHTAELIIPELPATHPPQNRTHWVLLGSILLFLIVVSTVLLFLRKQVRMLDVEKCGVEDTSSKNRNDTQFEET

SMILES	inhibition [1] [%]	inhibition [2] [%]	also measured
Cc1c(COc2cc(OCc3cccc(C#N)c3)c(CNC(C)(C)C(=O)N3CCN(C(=O)CCCC[C@H]4SC[C@H]5NC(=O)N[C@H]54)CC3)cc2Cl)cccc1-c1ccc2c(c1)OCCO2	9.1	59.3	–
Cc1c(COc2cc(OCc3cccc(C#N)c3)c(CN3CCCCC3C(=O)N3CCC(NC(=O)CCCC[C@@H]4SC[C@@H]5NC(=O)N[C@@H]54)CC3)cc2Cl)cccc1-c1ccccc1 (stereo partly specified)	100	97.2	IC50 [3]: 4 nM
Cc1c(COc2cc(OCc3cccc(C#N)c3)c(CNC(C)(C)C(=O)NCCNC(=O)CCCC[C@H]3SC[C@H]4NC(=O)N[C@H]43)cc2Cl)cccc1-c1ccc2c(c1)OCCO2	-4	66.9	–
Cc1c(COc2cc(OCc3cccc(C#N)c3)c(CN3CCCCC3C(=O)N(C)CCNC(=O)CCCC[C@@H]3SC[C@@H]4NC(=O)N[C@@H]43)cc2Cl)cccc1-c1ccccc1 (stereo partly specified)	34.9	104	IC50 [3]: 10.8 nM
Cc1c(COc2cc(OCc3cccc(C#N)c3)c(CN3CCCCC3C(=O)NCCCNC(=O)CCCC[C@@H]3SC[C@@H]4NC(=O)N[C@@H]43)cc2Cl)cccc1-c1ccccc1 (stereo partly specified)	85.2	104	IC50 [3]: 5.6 nM
Cc1c(COc2cc(OCc3cccc(C#N)c3)c(CNC(C)(C)C(=O)NC3CCN(C(=O)CCCC[C@H]4SC[C@H]5NC(=O)N[C@H]54)CC3)cc2Cl)cccc1-c1ccccc1	5.9	74.6	–
Cc1c(COc2cc(OCc3cccc(C#N)c3)c(CN3CCCCC3C(=O)NCCNC(=O)CCCC[C@H]3SC[C@H]4NC(=O)N[C@H]43)cc2Cl)cccc1-c1ccc2c(c1)OCCO2 (stereo partly specified)	26.8	88.5	–
Cc1c(COc2cc(OCc3cccc(C#N)c3)c(CN3CCCCC3C(=O)N3CCN(C(=O)CCCC[C@@H]4SC[C@@H]5NC(=O)N[C@@H]54)CC3)cc2Cl)cccc1-c1ccc2c(c1)OCCO2 (stereo partly specified)	17.3	80.9	–
Cc1c(COc2cc(OCc3cccc(C#N)c3)c(CN3CCCCC3C(=O)NC3CCN(C(=O)CCCC[C@H]4SC[C@H]5NC(=O)N[C@H]54)CC3)cc2Cl)cccc1-c1ccc2c(c1)OCCO2 (stereo partly specified)	11.2	84.7	–
Cc1c(COc2cc(OCc3cccc(C#N)c3)c(CNC(C)(C)C(=O)NCCNC(=O)CCCC[C@@H]3SC[C@@H]4NC(=O)N[C@@H]43)cc2Cl)cccc1-c1ccccc1	21.3	79.2	–
Cc1c(COc2cc(OCc3cccc(C#N)c3)c(CN3CCCCC3C(=O)N(C)CCNC(=O)CCCC[C@@H]3SC[C@@H]4NC(=O)N[C@@H]43)cc2Cl)cccc1-c1ccc2c(c1)OCCO2 (stereo partly specified)	20.1	82.6	–
Cc1c(COc2cc(OCc3cccc(C#N)c3)c(CN3CCCCC3C(=O)NCCN)cc2Cl)cccc1-c1ccccc1 (stereo unspecified)	–	–	Activity (HepG2): 31%; EC50 [4]: 4650 nM; AUCt [5]: 1800 ng·h/mL; AUC [6]: 1830 ng·h/mL; MRT last at 48 h [7]: 1.8 h; MRT inf [8]: 2.3 h; half-life [9]: 6.4 h; Tmax [10]: 4.98 min; clearance [11]: 8.33 mL/min/kg; Vd [12]: 5.3 L/kg; C0 at 48 h [13]: 2630 ng/mL; inhibition in vivo at 50 mg/kg (B16-F10 [14]): 44.3%; Activity (B16-F10 [15]): 8.45%; Activity [16]: Toxic; Activity [17]: Toxic
O=C(O)CCCC[C@@H]1SC[C@@H]2NC(=O)N[C@@H]21	–	–	inhibition [18]: inactive; Activity [19]: inactive; Activity [20]: inactive
Cc1c(COc2cc(OCc3cccc(C#N)c3)c(CN3CCCCC3C(=O)N3CCC(NC(=O)CCCC[C@H]4SC[C@H]5NC(=O)N[C@H]54)CC3)cc2Cl)cccc1-c1ccc2c(c1)OCCO2 (stereo partly specified)	13.4	90.6	–
Cc1c(COc2cc(OCc3cccc(C#N)c3)c(CN3CCCCC3C(=O)N3CCN(C(=O)CCCC[C@@H]4SC[C@@H]5NC(=O)N[C@@H]54)CC3)cc2Cl)cccc1-c1ccccc1 (stereo partly specified)	93.1	102	IC50 [3]: 3.4 nM
Cc1c(COc2cc(OCc3cccc(C#N)c3)c(CN3CCCCC3C(=O)NC3CCN(C(=O)CCCC[C@@H]4SC[C@@H]5NC(=O)N[C@@H]54)CC3)cc2Cl)cccc1-c1ccccc1 (stereo partly specified)	29.1	99.2	IC50 [3]: 11.6 nM
Cc1c(COc2cc(OCc3cccc(C#N)c3)c(CNC(C)(C)C(=O)NCCCNC(=O)CCCC[C@@H]3SC[C@@H]4NC(=O)N[C@@H]43)cc2Cl)cccc1-c1ccccc1	10.4	81.5	–
Cc1c(COc2cc(OCc3cccc(C#N)c3)c(CNC(C)(C)C(=O)N3CCC(NC(=O)CCCC[C@H]4SC[C@H]5NC(=O)N[C@H]54)CC3)cc2Cl)cccc1-c1ccc2c(c1)OCCO2	-7.5	42.6	–
Cc1c(COc2cc(OCc3cccc(C#N)c3)c(CNC(C)(C)C(=O)N3CCC(NC(=O)CCCC[C@@H]4SC[C@@H]5NC(=O)N[C@@H]54)CC3)cc2Cl)cccc1-c1ccccc1	6.8	64.1	–
Cc1c(COc2cc(OCc3cccc(C#N)c3)c(CNC(C)(C)C(=O)NC3CCN(C(=O)CCCC[C@H]4SC[C@H]5NC(=O)N[C@H]54)CC3)cc2Cl)cccc1-c1ccc2c(c1)OCCO2	3.7	50.1	–
Cc1c(COc2cc(OCc3cccc(C#N)c3)c(CNC(C)(C)C(=O)N3CCN(C(=O)CCCC[C@@H]4SC[C@@H]5NC(=O)N[C@@H]54)CC3)cc2Cl)cccc1-c1ccccc1	11.2	68.1	–
